{"source": "patent US20260108545A1", "about": "“Methods of treating fibromyalgia with compositions comprising psilocybin” (Tryp Therapeutics Inc., priority 2022, published 2026)", "key": {"[1]": {"conditions": "cited from earlier work"}, "[2]": {"conditions": "cited from earlier work", "remark": "listed apart in the source"}, "[3]": {"system": "rat model of formalin (FML)-induced chronic pain", "assay": "Von Frey assay (VFA), mechanical allodynia, formalin-induced rat pain model", "type": "in vivo, Sprague Dawley rats", "description": "This example describes the effects of intravenous administration of psychedelics on pain perception and diseases associated with pain, such as nociplastic pain, in an animal model of pain. A rat model of formalin (FML)-induced chronic pain was used to investigate the effect of psilocybin administration on mechanical allodynia and thermal hyperalgesia.\nChronic pain in rats was induced by injection of formalin into the hind paw. The rats subsequently were intravenously administered psilocybin, and assessed for changes in pain perception over an extended period of time. […] The pain perception was measured in the contralateral and ipsilateral paws to assess the potential benefit of psychedelics (e.g., psilocybin) in nociplastic pain disorders. […]\nAdult male Sprague Dawley rats (300-350 g) were implanted with a catheter in the jugular vein for delivery of 10 mg/kg psilocybin or 0.9% saline. Mechanical allodynia was assessed using von Frey assay (VFA) and was expressed as the threshold in grams (g). Thermal hyperalgesia was measured as paw withdrawal latency in seconds (s) using the hot plate assay (HPA) (52.5° C.). After post-surgical recovery (7-10 days), baseline responses to mechanical and thermal stimuli were measured. […] Two hours after the formalin injection, paw withdrawal thresholds in response to mechanical and thermal stimuli were measured. […]\nTwo types of pain perception were measured. […]"}, "[4]": {"conditions": "rats, cited from earlier work"}, "[5]": {"conditions": "across species tested; cited from earlier work"}, "[6]": {"conditions": "single oral administration of psilocybin at 0.225 mg/kg (Hasler et al.)"}}, "data": [{"molecule": "CN(C)CCc1c[nH]c2cccc(OP(=O)(O)O)c12", "note": "[psilocybin, 3-[2-(dimethylamino)ethyl]-1H-indol-4-yl]dihydrogen phosphate]", "values": [{"measurement": "bioavailability of oral psilocybin", "setting": "[1]; oral", "result": "~50", "unit": "%"}, {"measurement": "tolerability", "setting": "[2]; at the doses examined in clinical studies / healthy individuals", "result": "well tolerated"}, {"measurement": "rates of prolonged psychiatric symptoms of any kind following psilocybin exposure", "setting": "[2]; healthy study subjects, estimated", "result": "0.08-0.09%"}, {"measurement": "drug-related serious adverse events (SAEs)", "setting": "[2]; oral psilocybin", "result": "No drug-related serious adverse events (SAEs) have been reported"}, {"measurement": "duration of statistically significant increase in withdrawal threshold", "setting": "[3]; contralateral paw, after a single psilocybin administration", "result": 3, "unit": "weeks"}, {"measurement": "duration of decreased tactile pain", "setting": "[3]; rat model of pain", "result": "up to 28 days"}]}, {"molecule": "CN(C)CCc1c[nH]c2cccc(O)c12", "note": "[psilocin]", "values": [{"measurement": "time until psilocin is detectable in plasma", "setting": "[1]; after administration of the parent compound (oral psilocybin)", "result": "≤ 20", "unit": "min"}, {"measurement": "absolute bioavailability of psilocin after oral administration of psilocybin", "setting": "[1]; estimate (Hasler et al.)", "result": "52.7+/−20%"}, {"measurement": "half-life of psilocin in blood", "setting": "[1]; in vivo", "result": "2 to 3", "unit": "h"}, {"measurement": "average peak concentration of psilocin in plasma", "setting": "[1]; [6]", "result": "8.2+/−2.8 ng psilocin/ml plasma"}, {"measurement": "time of peak plasma levels of psilocin", "setting": "[1]; [6]", "result": "105 ± 37", "unit": "min"}, {"measurement": "share of total psilocin absorbed from the digestive tract", "setting": "[4]; oral psilocybin (Kalberer et al.)", "result": "approximately 50%"}, {"measurement": "time to maximum plasma levels", "setting": "[4]; post-administration (Chen et al.)", "result": "approximately 90 minutes"}, {"measurement": "brain regions with the highest levels of psilocin", "setting": "[5]", "result": "neocortex, hippocampus, and thalamus"}]}]}
